Legend:
[1] = system: Rat primary neurons; assay: KCl membrane depolarization of neurons expressing RGEDI-P2A-EGFP; assay type: cell-based; settings: 10 mM KCl (FIG. 21D)
Protocol: FIG. 21A depicts representative images of individual neurons over the time course. […] Next, the RGEDI intensity was plotted as a percentage increase from baseline (t=0) (ie delta RGEDI/baseline RGEDI). Using the morphology as a readout, the time of death was determined for each neuron. […] FIG. 21D.

[2] = system: motor neurons of zebrafish larvae; assay: Targeted neuronal ablation with MTZ in nitroreductase-expressing zebrafish; assay type: in vivo
Protocol: Briefly, zebrafish embryos were co-injected at 1-cell stage with mnx1:Gal4, UAS:GCaMP6f, and UAS:Nitroreductase-mCherry. Embryos were grown at 28.5° C. until 48 hours post fertilization (hpf), anaesthetized in tricaine, embedded in low-melting point agarose, and then imaged on a spinning disk confocal microscope. Images were acquired of the same motor neurons within the zebrafish at 0, 24 hours, and 48 hours after MTZ or DMSO was added to the media. Intensity of GCaMP6f was plotted as the change in fluorescence intensity from time point 0.
The GEDI reporter was also tested in skeletal muscle fiber. FIG. 13C. […] FIGS. 14A, 14B, and 22.

[3] = system: Rat primary neurons; assay: RGEDI/EGFP ratio after NaN3-induced acute death of neurons; assay type: cell-based
Protocol: ANOVA Tukey's ***p<0.001, ns=not significant.
Rat primary neurons were transfected with hsyn1:RGEDI-P2A-EGFP as described above and imaged at DIV10. […] A non-linear regression was fit to the NaN3+Ca^2+ time course and a half-life of RGEDI/EGFP signal increase was determined to be 5 minutes and 50 seconds. […] ANOVA Tukey comparison to 0 minutes of each condition, *** p<0.001, **** p<0.0001. […] FIG. 3.

[4] = system: rat primary cortical neurons; assay: Glutamate exposure of neurons expressing RGEDI, survival by GEDI ratio; assay type: cell-based; settings: within three hours of glutamate exposure
From the text: Briefly, neurons expressing RGEDI were exposed to the neurotransmitter glutamate. […] Furthermore, features of neurons such as neurite area were identified as associated with neurons that are resistant to high Glutamate exposure. These studies indicate that GEDIs can be used for screening for drug resistant or drug sensitive cells and identifying physiological characteristics of those cells that may underlie their sensitivity or resistance.

[5] = system: rat primary cortical neurons; assay: Toxicity of neurodegenerative disease proteins in neurons, cumulative hazard from GEDI ratio; assay type: cell-based; settings: automated GEDI ratio, 8 time points
Protocol: Rat primary cortical neuron cultures were prepared from embryos (embryonic day 16-18) and co-transfected using Lipofectamine2000 (ThermoFisher Scientific, Carlsbad, Calif., USA) with 150 ng/well of hSyn1:mRuby-P2a-GCaMP (Addgene #50943) and either Htt^ex1-Q27 or Htt^ex1-Q97 (known to induce neurodegeneration) in a 96-well format. […] FIG. 17A. The GCaMP intensity was detected and plotted as a percentage increase from baseline (t=0) (i.e., delta GCaMP/baseline GCaMP). Using the morphology as a readout, the time of death was determined for each neuron.
To examine the changes in signal increase as a cell dies, rat primary cortical neurons expressing GCaMP6f, mRuby, and HttEx1-Q97 were examined overtime. […] Using time lapse imaging, it was observed that 0 out of 94,106 dead rat primary cortical neurons examined regenerated after elevated GEDI signal, indicating elevated GEDI signal is terminal. In addition, the ratio of GCaMP6f/mRuby signal from rat primary cortical neurons expressing HttEx1-Q97 and HttEx1-Q25 at 0, 24, 48, 72, 96, and 120 hours post transfection was determined. FIG. 1B, the horizontal line at 0.75 separates dead from live neurons. […] Similarly, human motor neurons differentiated from induced pluripotent stem cells were transfected with […] hSyn1:mRuby-P2a-GCaMP and imaged with robotic microscopy every 6 hours up to 12 hours. […]

## [Cl-].[K+] [KCl]
[1]
  excitation of RGEDI-P2A-EGFP signal: failed to excite

## Cc1ncc([N+](=O)[O-])n1CCO [MTZ, metronidazole]
[2]; 24 and 48 hours after addition, zebrafish larvae motor neurons, NTR-mCherry
  GCaMP expression: increased
[2]; zebrafish neurons co-expressing NTR-mVenus, versus DMSO
  RGEDI-P2a-3XtagBFP signal: signal increased

## [N-]=[N+]=[N-].[Na+] [NaN3]
[3]; 2% NaN3 in NBM with ~2 mM Ca^2+, compared to saline
  RGEDI/EGFP ratio: significantly increased
[3]; NaN3, neurons washed 3x and incubated in Ca2+ free PBS
  RGEDI/EGFP ratio: did not show a significant increase

## N[C@@H](CCC(=O)O)C(=O)O [glutamate]
[4]
  neuronal death: killed many of the cells

## TDP43: neurodegenerative disease protein transfected into neurons
[5]
  toxicity over time compared to control (cumulative hazard): increased toxicity

## α-synuclein
[5]
  toxicity over time compared to control (cumulative hazard): increased toxicity

— patent US20190242876A1, “GENETICALLY ENCODED CELL DEATH INDICATORS AND METHODS OF USE” (The J. David Gladstone Institutes, A Testamentary Trust …, priority 2016, published 2019)
